# The source made the active and inactive calls.
# Legend:
# [1] = target: DNA topoisomerase (Yersinia pestis, UniProt A0A2S9PM60); assay: Y. pestis Topo-I inhibitors, cleavage product readout, dose response, biochemical, cherry-pick (AID 588525)
# [2] = target: T1, Hexokinase HKDC1 (Homo sapiens, UniProt Q2TB90); assay: SAR analysis of small molecule inhibitors of hexokinase domain containing I (HKDC1). [Related pubchem assays (depositor defined):AID493160, AID493190]; format: functional
# T1 sequence (Q2TB90 whole entry): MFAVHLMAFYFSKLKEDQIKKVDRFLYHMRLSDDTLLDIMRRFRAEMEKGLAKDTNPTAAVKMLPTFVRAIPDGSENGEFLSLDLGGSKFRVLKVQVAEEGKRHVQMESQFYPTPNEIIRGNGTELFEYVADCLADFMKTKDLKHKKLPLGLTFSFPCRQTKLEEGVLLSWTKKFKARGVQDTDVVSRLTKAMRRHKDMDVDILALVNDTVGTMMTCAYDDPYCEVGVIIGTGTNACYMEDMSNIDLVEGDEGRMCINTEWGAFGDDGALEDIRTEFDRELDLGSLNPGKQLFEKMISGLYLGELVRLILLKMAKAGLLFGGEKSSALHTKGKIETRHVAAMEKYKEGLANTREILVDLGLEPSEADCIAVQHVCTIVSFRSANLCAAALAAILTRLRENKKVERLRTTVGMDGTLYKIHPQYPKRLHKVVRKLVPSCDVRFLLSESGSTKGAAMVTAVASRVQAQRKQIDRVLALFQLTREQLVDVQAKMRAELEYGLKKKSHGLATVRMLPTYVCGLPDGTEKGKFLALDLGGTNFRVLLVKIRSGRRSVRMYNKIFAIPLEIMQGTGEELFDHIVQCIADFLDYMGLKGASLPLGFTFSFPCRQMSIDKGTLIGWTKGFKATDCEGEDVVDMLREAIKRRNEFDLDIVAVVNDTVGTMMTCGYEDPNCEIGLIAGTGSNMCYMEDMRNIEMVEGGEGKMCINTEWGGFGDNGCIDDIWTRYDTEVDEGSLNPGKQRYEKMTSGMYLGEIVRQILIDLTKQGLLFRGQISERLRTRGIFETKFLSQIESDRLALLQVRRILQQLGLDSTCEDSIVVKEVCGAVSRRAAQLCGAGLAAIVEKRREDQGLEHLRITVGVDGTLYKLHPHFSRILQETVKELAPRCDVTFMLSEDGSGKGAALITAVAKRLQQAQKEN
# [3] = target: T2, Hexokinase-1 (Homo sapiens, UniProt P19367); assay: SAR analysis of small molecule inhibitors of hexokinase domain containing I (HKDC1) in the hexokinase 1 selectivity assay. [Related pubchem assays (depositor defined):AID493160, AID493190]; format: functional
# T2 sequence (P19367 whole entry): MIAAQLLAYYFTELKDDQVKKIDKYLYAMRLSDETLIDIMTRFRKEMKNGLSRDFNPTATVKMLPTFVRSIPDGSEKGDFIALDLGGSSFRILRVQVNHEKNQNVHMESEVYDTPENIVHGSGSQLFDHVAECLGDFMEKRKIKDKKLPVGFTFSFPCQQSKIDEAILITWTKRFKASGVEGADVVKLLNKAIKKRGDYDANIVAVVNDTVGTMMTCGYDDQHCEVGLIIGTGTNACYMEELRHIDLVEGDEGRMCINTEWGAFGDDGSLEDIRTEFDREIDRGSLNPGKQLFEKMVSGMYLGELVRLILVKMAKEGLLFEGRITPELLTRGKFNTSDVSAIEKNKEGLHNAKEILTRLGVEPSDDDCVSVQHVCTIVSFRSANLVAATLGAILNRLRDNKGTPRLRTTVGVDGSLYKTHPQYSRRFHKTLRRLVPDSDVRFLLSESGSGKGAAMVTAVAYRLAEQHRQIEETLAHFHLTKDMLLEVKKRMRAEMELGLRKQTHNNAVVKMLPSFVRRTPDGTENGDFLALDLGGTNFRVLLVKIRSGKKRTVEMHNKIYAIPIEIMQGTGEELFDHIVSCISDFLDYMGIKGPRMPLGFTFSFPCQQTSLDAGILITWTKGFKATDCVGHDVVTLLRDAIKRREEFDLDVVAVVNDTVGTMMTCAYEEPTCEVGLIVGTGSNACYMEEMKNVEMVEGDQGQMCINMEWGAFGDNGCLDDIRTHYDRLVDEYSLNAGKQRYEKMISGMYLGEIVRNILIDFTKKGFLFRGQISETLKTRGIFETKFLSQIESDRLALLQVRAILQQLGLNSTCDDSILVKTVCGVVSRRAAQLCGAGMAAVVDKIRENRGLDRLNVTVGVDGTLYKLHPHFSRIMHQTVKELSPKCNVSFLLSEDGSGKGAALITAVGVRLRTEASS
# [4] = target: Acyl-homoserine lactone acylase PvdQ (Pseudomonas aeruginosa (strain LESB58), UniProt Q9I194); assay: P. aeruginosa PvdQ acylase inhibitors, dose response, biochemical, fluorescence, plate reader and imaging, cherry-picks (AID 493231)
# Acyl-homoserine lactone acylase PvdQ, sequence (Q9I194 24-193 limits assumed): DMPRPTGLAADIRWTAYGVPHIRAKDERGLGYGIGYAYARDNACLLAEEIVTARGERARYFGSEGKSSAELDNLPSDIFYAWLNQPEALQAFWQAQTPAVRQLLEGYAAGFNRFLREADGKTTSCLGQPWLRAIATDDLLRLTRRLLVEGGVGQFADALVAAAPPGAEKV
# Acyl-homoserine lactone acylase PvdQ, sequence (Q9I194 217-762 limits assumed): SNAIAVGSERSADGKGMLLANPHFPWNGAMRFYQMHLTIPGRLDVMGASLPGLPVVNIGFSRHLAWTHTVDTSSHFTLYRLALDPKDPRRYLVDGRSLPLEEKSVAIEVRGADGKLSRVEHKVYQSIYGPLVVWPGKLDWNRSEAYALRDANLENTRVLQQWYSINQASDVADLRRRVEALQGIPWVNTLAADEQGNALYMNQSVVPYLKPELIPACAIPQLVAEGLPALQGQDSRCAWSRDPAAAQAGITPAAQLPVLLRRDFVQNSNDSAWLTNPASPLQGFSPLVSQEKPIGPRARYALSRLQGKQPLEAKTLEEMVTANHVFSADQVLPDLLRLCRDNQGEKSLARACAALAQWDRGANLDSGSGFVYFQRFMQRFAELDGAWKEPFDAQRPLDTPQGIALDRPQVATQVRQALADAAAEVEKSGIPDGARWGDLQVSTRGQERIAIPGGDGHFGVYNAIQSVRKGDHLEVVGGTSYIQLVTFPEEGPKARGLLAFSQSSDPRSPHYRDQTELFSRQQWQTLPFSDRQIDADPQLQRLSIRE
# [5] = test system: HeLa; assay: HeLa cell cytotoxicity, dose response, cytotoxicity control, 48 h, plate reader, cherry-picks (AID 504942); format: functional, cell-based; details: Homo sapiens
# DNA topoisomerase, sequence (A0A2S9PM60 whole entry, the tested form may be a part): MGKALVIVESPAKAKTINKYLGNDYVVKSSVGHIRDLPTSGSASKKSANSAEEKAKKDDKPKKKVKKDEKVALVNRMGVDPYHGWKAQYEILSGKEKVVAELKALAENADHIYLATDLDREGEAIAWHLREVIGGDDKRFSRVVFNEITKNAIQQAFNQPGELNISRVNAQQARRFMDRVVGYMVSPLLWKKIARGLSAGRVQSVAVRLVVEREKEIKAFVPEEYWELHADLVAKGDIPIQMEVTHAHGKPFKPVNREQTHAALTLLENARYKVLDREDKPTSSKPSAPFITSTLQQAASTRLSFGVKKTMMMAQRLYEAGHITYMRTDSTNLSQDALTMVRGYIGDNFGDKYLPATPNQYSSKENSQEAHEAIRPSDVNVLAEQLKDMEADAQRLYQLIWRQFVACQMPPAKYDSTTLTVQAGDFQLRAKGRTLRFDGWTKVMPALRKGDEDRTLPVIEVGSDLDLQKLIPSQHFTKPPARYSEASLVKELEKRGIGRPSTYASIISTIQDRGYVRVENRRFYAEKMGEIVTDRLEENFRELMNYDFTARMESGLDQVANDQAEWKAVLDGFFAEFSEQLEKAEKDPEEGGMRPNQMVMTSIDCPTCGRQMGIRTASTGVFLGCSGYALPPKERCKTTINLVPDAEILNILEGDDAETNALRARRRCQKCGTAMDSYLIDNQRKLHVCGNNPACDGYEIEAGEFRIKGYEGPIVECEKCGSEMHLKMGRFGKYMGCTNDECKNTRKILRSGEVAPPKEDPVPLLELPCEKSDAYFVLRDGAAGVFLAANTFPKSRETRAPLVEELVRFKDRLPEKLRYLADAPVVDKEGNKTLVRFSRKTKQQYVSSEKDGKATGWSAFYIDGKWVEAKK
smiles,measurement,setting,value
Cc1cc(NC(=O)c2cc(-c3ccccc3)on2)n(-c2ccccc2)n1,AC50,[1],4.16 µM (active)
Cc1ccccc1/C=C/c1nc2ccccc2c(=O)n1Cc1ccccc1,IC50,[2],> 80 µM (inactive)
same,IC50,[3],> 80 µM (inactive)
Cc1cccc(NC(=O)c2ccc3c(c2)OCCO3)n1,AC50,[4],10.2 µM (active)
same,AC50,[5],94.1 µM (active)

# Reference: ChEMBL document CHEMBL1201862, “PubChem BioAssay data set” (2004)
